Laboratory results published in US12304890B2, “R-type pyridyloxycarboxylic acid, salt and ester derivative thereof, and preparation method therefor, and herbicidal composition and application thereof” (Qingdao Kingagroot Chemical Compound Co., Ltd., priority 2018, dated 2025).

Experiments:
Assay type in all cases: in vivo
[1] = test system: Echinochloa crusgalli; experiment: Post-emergence test experiment, Echinochloa crusgalli; settings: 1000 g a.i./ha, 3 weeks in greenhouse, fresh weight inhibition
Method in brief: (§1)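 Growth inhibition is given as reduction in fresh weight, assessed 3 weeks post-treatment in the greenhouse. Spray solutions (acetone, tween-80, water, with 1.5 L/ha methyl oleate concentrate synergist) were applied to weeds and crops at 2-3 leaves, 2 weeks from sowing.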

[2] = test system: Digitaria sanguinalis; experiment: Post-emergence test experiment, Digitaria sanguinalis; settings: 1000 g a.i./ha, 3 weeks in greenhouse, fresh weight inhibition
Method in brief: as §1

[3] = test system: Monocotyledonous and dicotyledonous weed seeds and main crop seeds; experiment: Post-emergence test experiment, other weeds and crops (Table 4, 1000 g a.i./ha); settings: 3 weeks in greenhouse, fresh weight inhibition
Method in brief: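 Growth inhibition is scored on fresh weight. Spray solutions were made in acetone with tween-80, diluted in water, plus 1.5 L/ha methyl oleate emulsible concentrate. Plants from greenhouse-grown weed and crop seeds were treated post-emergence at 2-3 leaves, 2 weeks after sowing.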

Row | SMILES | Activity level (growth inhibition rate), Echinochloa crusgalli [1] | Activity level (growth inhibition rate), Digitaria sanguinalis [2] | Activity level (growth inhibition rate), Abutilon theophrasti Medic. [3] | Activity level (growth inhibition rate), Galium aparine [3] | Activity level (growth inhibition rate), Monochoria Vaginalis [3]
1 | CCCCCCCCCCCSC(=O)[C@@H](C)Oc1nc(F)c(Cl)c(N)c1Cl [Compound 2-216] | 5 (Level 5: the growth inhibition rate is greater than 85%) | 5 (Level 5: the growth inhibition rate is greater than 85%) | 5 (Level 5: the growth inhibition rate is greater than 85%) | 5 (Level 5: the growth inhibition rate is greater than 85%) | 5 (Level 5: the growth inhibition rate is greater than 85%)
2 | CCOCOC(=O)[C@@H](C)Oc1nc(F)c(Cl)c(N)c1Cl [Compound 2-370] | 5 (Level 5: the growth inhibition rate is greater than 85%) | 5 (Level 5: the growth inhibition rate is greater than 85%) | 5 (Level 5: the growth inhibition rate is greater than 85%) | 5 (Level 5: the growth inhibition rate is greater than 85%) | 5 (Level 5: the growth inhibition rate is greater than 85%)
3 | CC(Oc1nc(F)c(Cl)c(N)c1Cl)C(=O)OC1CCCC1 (stereo not drawn) [Compound 2-265] | 5 (Level 5: the growth inhibition rate is greater than 85%) | 5 (Level 5: the growth inhibition rate is greater than 85%) | 5 (Level 5: the growth inhibition rate is greater than 85%) | 5 (Level 5: the growth inhibition rate is greater than 85%) | 5 (Level 5: the growth inhibition rate is greater than 85%)
4 | CCC(C)CCSC(=O)[C@@H](C)Oc1nc(F)c(Cl)c(N)c1Cl (stereo partly drawn) [Compound 2-106] | 5 (Level 5: the growth inhibition rate is greater than 85%) | 5 (Level 5: the growth inhibition rate is greater than 85%) | 5 (Level 5: the growth inhibition rate is greater than 85%) | 5 (Level 5: the growth inhibition rate is greater than 85%) | 5 (Level 5: the growth inhibition rate is greater than 85%)
5 | C[C@@H](Oc1nc(F)c(Cl)c(N)c1Cl)C(=O)SCC(C)(C)C [Compound 2-92] | 5 (Level 5: the growth inhibition rate is greater than 85%) | 5 (Level 5: the growth inhibition rate is greater than 85%) | 5 (Level 5: the growth inhibition rate is greater than 85%) | 5 (Level 5: the growth inhibition rate is greater than 85%) | 5 (Level 5: the growth inhibition rate is greater than 85%)
6 | C[C@@H](Oc1nc(F)c(Cl)c(N)c1Cl)C(=O)OCc1ccc(C#N)cc1 [Compound 2-337] | 5 (Level 5: the growth inhibition rate is greater than 85%) | 5 (Level 5: the growth inhibition rate is greater than 85%) | 5 (Level 5: the growth inhibition rate is greater than 85%) | 5 (Level 5: the growth inhibition rate is greater than 85%) | 5 (Level 5: the growth inhibition rate is greater than 85%)
7 | CC(Oc1nc(F)c(Cl)c(N)c1Cl)C(=O)[S-].CC(Oc1nc(F)c(Cl)c(N)c1Cl)C(=O)[S-].[Ca+2] (stereo not drawn) [Compound 2-2] | 5 (Level 5: the growth inhibition rate is greater than 85%) | 5 (Level 5: the growth inhibition rate is greater than 85%) | 5 (Level 5: the growth inhibition rate is greater than 85%) | 5 (Level 5: the growth inhibition rate is greater than 85%) | 5 (Level 5: the growth inhibition rate is greater than 85%)
8 | C[C@@H](Oc1nc(F)c(Cl)c(N)c1Cl)C(=O)OCc1ccoc1 [Compound 2-349] | 5 (Level 5: the growth inhibition rate is greater than 85%) | 5 (Level 5: the growth inhibition rate is greater than 85%) | 5 (Level 5: the growth inhibition rate is greater than 85%) | 5 (Level 5: the growth inhibition rate is greater than 85%) | 5 (Level 5: the growth inhibition rate is greater than 85%)
9 | CCCCCCSC(=O)[C@@H](C)Oc1nc(F)c(Cl)c(N)c1Cl [Compound 2-102] | 5 (Level 5: the growth inhibition rate is greater than 85%) | 5 (Level 5: the growth inhibition rate is greater than 85%) | 5 (Level 5: the growth inhibition rate is greater than 85%) | 5 (Level 5: the growth inhibition rate is greater than 85%) | 5 (Level 5: the growth inhibition rate is greater than 85%)
10 | C[C@@H](Oc1nc(F)c(Cl)c(N)c1Cl)C(=O)OCc1cccs1 [Compound 2-350] | 5 (Level 5: the growth inhibition rate is greater than 85%) | 5 (Level 5: the growth inhibition rate is greater than 85%) | 5 (Level 5: the growth inhibition rate is greater than 85%) | 5 (Level 5: the growth inhibition rate is greater than 85%) | 5 (Level 5: the growth inhibition rate is greater than 85%)
11 | C[C@@H](Oc1nc(F)c(Cl)c(N)c1Cl)C(=O)OCc1ccccc1C#N [Compound 2-333] | 5 (Level 5: the growth inhibition rate is greater than 85%) | 5 (Level 5: the growth inhibition rate is greater than 85%) | 5 (Level 5: the growth inhibition rate is greater than 85%) | 5 (Level 5: the growth inhibition rate is greater than 85%) | 5 (Level 5: the growth inhibition rate is greater than 85%)
12 | CCCCCCCCCCSC(=O)[C@@H](C)Oc1nc(F)c(Cl)c(N)c1Cl [Compound 2-196] | 5 (Level 5: the growth inhibition rate is greater than 85%) | 5 (Level 5: the growth inhibition rate is greater than 85%) | 5 (Level 5: the growth inhibition rate is greater than 85%) | 5 (Level 5: the growth inhibition rate is greater than 85%) | 5 (Level 5: the growth inhibition rate is greater than 85%)
